According to US20230331679A1, “NAPHTHALENE MONOIMIDE COMPOUNDS AND METHODS THEREOF” (JAWAHARLAL NEHRU CENTRE FOR ADVANCED SCIENTIFIC RESEARCH, priority 2020, published 2023):

Legend:
[1] = tested on: APP/PS1 mice; test: Amyloid burden in brain by OC immunohistochemistry; format: in vivo
Source text: To evaluate the activity of TGR63 to ameliorate amyloid burden in in vivo AD model, APP/PS1 mice were bred, maintained and characterized (WT: wild type; AD: APP/PS1 positive) according to the Jackson Laboratory protocols. The double transgenic APP/PS1 mice (B6C3-Tg (APPswe, PSEN IdE9)85Dbo/J; stock number 004462), which express human transgenes APP and presenilin 1 (PS1) in the central nervous system (CNS) contains the Swedish and […], respectively. The K595N/M596L (Swedish) mutation favors the amyloidogenic processing of APP protein, and PS1 mutation ([…]) elevates the production of Aβ peptides through modifying the intra-membrane γ-complex. The presence of Aβ plaques in the APP/PS 1 AD phenotypic mouse brain was confirmed and compared with the healthy brain by Aβ plaques-specific staining protocols. FIG. 13 depicts the Staining of amyloid plaques with OC primary antibody and ThT or CQ probe, FIG. 13A represent the high-resolution confocal microscopy images of cortex and hippocampus regions of the AD mouse brain, immunostained with OC antibody (red), DAPI (blue) and ThT (green). The merged images display significant overlap between ThT and OC staining to confirm the amyloid deposition (pointed with white arrows), FIG. 13A represent the visualization of amyloid deposits associated neuronal damage: The DIC images of different regions of AD. The merged images of DIC and confocal microscopy images show amyloid plaques associated brain damage (pointed out with red arrows). The brains were harvested from the age matched WT and AD mice and treated with PFA (4%) and sucrose solution (30%) for the sagittal brain sectioning (40 µm sections). The brain sections were co-stained with ThT (λex= 442 nm, λem= 482 nm) and OC primary antibody followed by fluorescently labeled secondary antibody (λex= 633 nm, λem= 650 nm) or CQ to visualize and confirm the amyloid plaques deposition. […] Similar fluorescence signals (green and red) were absent in the age-matched WT brain section, confirming the amyloid plaques-free healthy brain (FIG. 13A). The hippocampal damage, a hallmark of advanced AD condition was partially observed in 14 month old APP/PS1 mice. Age-matched AD, and WT cohorts were administered with TGR63 (5 mg/kg body weight/day) and vehicle starting from the age of 6 months following the treatment protocols as shown in FIG. 14. The experimental mice were sacrificed after completing the behavioral studies (14 months) to investigate amyloid deposits in the brain using immunohistochemistry. The sagittal brain sections were permeabilized and blocked with PBTx (0.1 M PBS and 0.1% TritonX-100) and goat serum (1%) containing BSA (2%) at room temperature, respectively. […]

[2] = biological target: T1, Full length tau (Homo sapiens, UniProt P10636); test: ThT fluorescence assay, inhibition of tau aggregation; format: biochemical; settings: for ThT fluorescence signal compared with untreated controls (100%): tau 5 µM, heparin 1.25 µM, 72 h at 37° C.
T1 construct: Full length tau (5 µM) was incubated with TGR63
Source text: Tau is a microtubule-associated proteins that interacts with tubulin and stimulates its assembly into microtubules. The extent of phosphorylation regulates the activity of tau protein and the hyperphosphorylation diminishes its physiological function leading to several neuronal disorders like AD and tauopathies. The self-aggregation of hyperphosphorylated tau form intracellular neurofibrillary tangles (NFTs) and paired helical filaments (PHFs) that impairs the axonal functions and degenerates neuronal cells. Considering the prominent role of tau in AD pathology, the self-aggregation and deposition of hyperphosphorylated tau became a potential target to tackle AD and related tauopathies. Effect of TGR63 on tau aggregation was assessed. Full length tau (5 µM) was incubated with TGR63 (5 and 25 µM) for 72 h at 37° C. in the presence of aggregation inducer (heparin; 1.25 µM). The extent of aggregation of incubated samples were assessed by ThT fluorescence (λex= 442 nm and λem=482 nm) assay. FIG. 25 depicts the inhibition of tau (5 µM) aggregation in presence of TGR63. As expected, the ThT fluorescence signal was increased by ~15 folds with compare to only ThT, which confirmed the formation of pathogenic tau aggregates.

[3] = tested on: PC12 cells; test: Rescue of PC12 cells from Aβ42 toxicity (MTT cell viability assay); settings: PC12 cells, Aβ42 20 µM + compound 40 µM, 24 h; Aβ42 alone 54%, untreated 100%
Experimental: A 96-well plate was used to culture the cells (15,000 per well) with RPMI media (10% fetal bovine serum (FBS), 5% horse serum (HS,), and 1% pen-strep (PS)) at 37° C. temperature in a 5% CO2 atmosphere. Then the media was exchanged with low serum (2% FBS) media and monomeric Aβ42 was added in the absence and presence of NMI compounds and incubated for 24 h.
The structure-activity relationship (SAR) of NMI compounds towards rescuing PC12 cells from Aβ toxicity was investigated. […] Each experiment was repeated three times (n = 3), and error bars represent the standard deviation (SD).
An Alzheimer’s disease-like environment was mimicked by exposing the cultured PC12 cells to 20 µM of Aβ42 fibrils, which formed cytotoxic aggregation species in the growth media.

T1 sequence (P10636 1-441 isoform P10636-8): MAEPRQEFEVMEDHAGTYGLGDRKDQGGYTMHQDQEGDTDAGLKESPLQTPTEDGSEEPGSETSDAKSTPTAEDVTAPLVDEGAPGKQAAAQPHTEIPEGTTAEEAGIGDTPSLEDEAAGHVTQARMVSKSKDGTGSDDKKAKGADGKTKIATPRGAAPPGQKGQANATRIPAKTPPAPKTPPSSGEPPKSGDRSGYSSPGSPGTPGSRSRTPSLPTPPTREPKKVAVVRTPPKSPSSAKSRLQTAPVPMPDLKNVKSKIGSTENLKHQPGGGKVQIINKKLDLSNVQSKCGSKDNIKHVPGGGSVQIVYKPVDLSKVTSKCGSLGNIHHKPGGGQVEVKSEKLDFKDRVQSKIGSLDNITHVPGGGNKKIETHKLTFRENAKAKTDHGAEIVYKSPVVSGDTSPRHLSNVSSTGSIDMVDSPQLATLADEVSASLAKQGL

CN(C)c1ccc(C#Cc2ccc3c4c(cccc24)C(=O)N(CC[N+](C)(C)C)C3=O)cc1 [TGR63, 2-(6-((4-(dimethylamino)phenyl)ethynyl)-1,3-dioxo-1H-benzo[de]isoquinolin-2(3H)-yl)-N,N,N-trimethylethan-1-aminium]
Aβ plaques deposits, area of the hippocampus ([1]; AD (APP/PS1) mice, 5 mg/kg body weight/day from 6 to 14 months, vehicle 6.28%): 0.94 % area
Aβ plaques deposits, area of the cortex ([1]; AD (APP/PS1) mice, 5 mg/kg body weight/day from 6 to 14 months, vehicle 8.87%): 1.94 % area
reduction of Aβ deposits in the cortex ([1]; AD mice, versus vehicle): 78%
reduction of Aβ deposits in the hippocampus ([1]; AD mice, versus vehicle): 85%
ThT fluorescence signal compared with untreated controls (100%) ([2]; TGR63 5 µM): ~ 72%
ThT fluorescence signal compared with untreated controls (100%) ([2]; TGR63 25 µM): ~52%
reduction of tau aggregates ([2]; tau:TGR63 1:1): ~ 28%
reduction of tau aggregates ([2]; tau:TGR63 1:5): ~48%
cell viability [3]: 80%
